Patent US20090010979A1, “Method of Controlling Termites” (BAYER CROPSCIENCE LP, priority 2004, published 2009)

Test: Arrestant composition on silica with Premise 75WP distributed in soil: movement of components
Assay type: physicochemical
Details: after several months
Experimental: (A) Preparation of the arrestant composition: A mixture of 5-methylpentacosane, 11-methylpentacosane, 9-Z-pentacosene, n-pentacosane, and n-hexamethylcosane in proportion of about 11.4:36.3:19.6:27.7:5.0 as a 0.06% (by weight) solution in acetone (0.06 g) was diluted into acetone and mixed with 149.4 g of Zeolex® 7A brand silica (J.M. Huber, Inc. USA) The acetone was removed by evaporation at 50° C. at 3.5 mm Hg to provide a smooth flowable powder. The powder was mixed with 850 g of Premise® 75WP (imidacloprid active ingredient), and milled to a consistent appearance.
(B) Use of the Arrestant Composition of Part (A): The final product is distributed in soil.

## O=[N+]([O-])NC1=NCCN1Cc1ccc(Cl)nc1 [imidacloprid]
  movement in soil: moves downward
